# Experiments:
# Conditions in all cases: 0.1 µM; binder
# STK4 = STK4 (Homo sapiens, UniProt Q13043)
# TEC = TEC (Homo sapiens, UniProt P42680)
# STK35 = STK35 (Homo sapiens, UniProt Q8TDR2)
# MAP3K15 = MAP3K15 (Homo sapiens, UniProt Q6ZN16)
# PIK3CA = PIK3CA (Homo sapiens, UniProt P42336)
# KIT(L576P) = KIT(L576P) (Homo sapiens, UniProt P10721, L576P)
# SgK110 = SgK110 (Homo sapiens, UniProt P0C264)
# MST2 = MST2 (Homo sapiens, UniProt Q13188)
# PCTK3 = PCTK3 (Homo sapiens, UniProt Q07002)
# PFTK1 = PFTK1 (Homo sapiens, UniProt O94921)
# PRKD3 = PRKD3 (Homo sapiens, UniProt O94806)
# EGFR = EGFR (Homo sapiens, UniProt P00533)
# TAOK2 = TAOK2 (Homo sapiens, UniProt Q9UL54)
# Sequence of TAOK2 (Q9UL54 whole entry): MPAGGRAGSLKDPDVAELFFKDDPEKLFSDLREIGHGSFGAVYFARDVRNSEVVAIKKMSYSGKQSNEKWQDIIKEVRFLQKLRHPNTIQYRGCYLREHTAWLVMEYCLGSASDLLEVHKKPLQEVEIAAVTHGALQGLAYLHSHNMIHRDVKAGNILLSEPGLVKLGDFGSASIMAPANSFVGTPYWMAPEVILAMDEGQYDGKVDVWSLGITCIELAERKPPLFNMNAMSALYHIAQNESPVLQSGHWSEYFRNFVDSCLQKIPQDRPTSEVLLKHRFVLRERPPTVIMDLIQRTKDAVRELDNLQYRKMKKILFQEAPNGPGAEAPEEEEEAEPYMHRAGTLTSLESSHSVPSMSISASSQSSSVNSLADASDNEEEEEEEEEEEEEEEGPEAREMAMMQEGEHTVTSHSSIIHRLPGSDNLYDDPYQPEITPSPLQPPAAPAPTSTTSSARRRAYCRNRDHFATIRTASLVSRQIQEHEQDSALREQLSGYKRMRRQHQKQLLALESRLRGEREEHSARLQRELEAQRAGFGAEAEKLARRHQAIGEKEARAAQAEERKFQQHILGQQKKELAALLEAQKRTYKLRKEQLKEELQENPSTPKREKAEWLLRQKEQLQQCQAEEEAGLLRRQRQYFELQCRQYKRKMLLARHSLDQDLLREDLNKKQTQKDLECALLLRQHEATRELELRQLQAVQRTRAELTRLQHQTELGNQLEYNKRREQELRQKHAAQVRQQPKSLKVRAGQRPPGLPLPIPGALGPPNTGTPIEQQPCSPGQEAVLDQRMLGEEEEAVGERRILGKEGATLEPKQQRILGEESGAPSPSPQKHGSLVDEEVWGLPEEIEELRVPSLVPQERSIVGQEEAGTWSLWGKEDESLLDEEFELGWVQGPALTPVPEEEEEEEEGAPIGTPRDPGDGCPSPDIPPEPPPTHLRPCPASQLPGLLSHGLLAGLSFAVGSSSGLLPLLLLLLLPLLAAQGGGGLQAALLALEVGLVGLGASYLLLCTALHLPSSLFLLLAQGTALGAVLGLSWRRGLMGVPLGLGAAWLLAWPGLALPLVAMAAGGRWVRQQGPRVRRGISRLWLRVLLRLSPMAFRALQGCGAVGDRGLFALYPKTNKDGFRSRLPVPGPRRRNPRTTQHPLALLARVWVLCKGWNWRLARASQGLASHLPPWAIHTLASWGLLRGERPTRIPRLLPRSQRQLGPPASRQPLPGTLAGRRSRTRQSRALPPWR
# PDGFRB = PDGFRB (Homo sapiens, UniProt P09619)
# Sequence of PDGFRB (P09619 whole entry): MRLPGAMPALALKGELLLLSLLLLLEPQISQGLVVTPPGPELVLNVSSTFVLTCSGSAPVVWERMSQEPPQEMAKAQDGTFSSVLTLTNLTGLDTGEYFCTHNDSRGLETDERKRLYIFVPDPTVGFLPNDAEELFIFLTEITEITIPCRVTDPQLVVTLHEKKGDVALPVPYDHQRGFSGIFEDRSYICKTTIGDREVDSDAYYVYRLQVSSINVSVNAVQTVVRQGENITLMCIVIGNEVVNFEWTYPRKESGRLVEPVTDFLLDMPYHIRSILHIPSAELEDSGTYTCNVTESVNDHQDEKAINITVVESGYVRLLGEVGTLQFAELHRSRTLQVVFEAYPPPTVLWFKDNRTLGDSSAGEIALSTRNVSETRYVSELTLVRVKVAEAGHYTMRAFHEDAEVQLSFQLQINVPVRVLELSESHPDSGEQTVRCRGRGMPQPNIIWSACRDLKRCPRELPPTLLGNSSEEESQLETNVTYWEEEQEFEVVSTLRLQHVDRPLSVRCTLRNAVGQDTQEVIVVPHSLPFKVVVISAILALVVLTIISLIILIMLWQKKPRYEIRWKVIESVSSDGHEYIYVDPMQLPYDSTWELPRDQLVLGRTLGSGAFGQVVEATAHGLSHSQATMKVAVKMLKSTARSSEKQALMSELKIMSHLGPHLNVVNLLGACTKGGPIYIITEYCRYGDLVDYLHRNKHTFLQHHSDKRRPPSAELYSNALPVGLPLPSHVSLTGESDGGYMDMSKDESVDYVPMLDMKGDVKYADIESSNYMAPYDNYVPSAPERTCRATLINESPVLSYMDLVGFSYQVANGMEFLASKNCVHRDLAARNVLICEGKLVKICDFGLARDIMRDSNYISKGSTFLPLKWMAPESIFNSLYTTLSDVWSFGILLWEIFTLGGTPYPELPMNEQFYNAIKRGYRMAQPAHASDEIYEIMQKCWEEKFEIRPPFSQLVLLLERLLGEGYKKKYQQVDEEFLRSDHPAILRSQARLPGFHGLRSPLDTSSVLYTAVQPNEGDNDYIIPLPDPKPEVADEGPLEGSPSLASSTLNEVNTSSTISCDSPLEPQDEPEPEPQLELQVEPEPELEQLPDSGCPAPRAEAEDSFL
# PIK3C2G = PIK3C2G (Homo sapiens, UniProt O75747)
# IRAK3 = IRAK3 (Homo sapiens, UniProt Q9Y616)
# ERK1 = ERK1 (Homo sapiens, UniProt P27361)
# BRAF(V600E) = BRAF(V600E) (Homo sapiens, UniProt P15056, V600E)
# Sequence of BRAF(V600E) (P15056 whole entry V600E): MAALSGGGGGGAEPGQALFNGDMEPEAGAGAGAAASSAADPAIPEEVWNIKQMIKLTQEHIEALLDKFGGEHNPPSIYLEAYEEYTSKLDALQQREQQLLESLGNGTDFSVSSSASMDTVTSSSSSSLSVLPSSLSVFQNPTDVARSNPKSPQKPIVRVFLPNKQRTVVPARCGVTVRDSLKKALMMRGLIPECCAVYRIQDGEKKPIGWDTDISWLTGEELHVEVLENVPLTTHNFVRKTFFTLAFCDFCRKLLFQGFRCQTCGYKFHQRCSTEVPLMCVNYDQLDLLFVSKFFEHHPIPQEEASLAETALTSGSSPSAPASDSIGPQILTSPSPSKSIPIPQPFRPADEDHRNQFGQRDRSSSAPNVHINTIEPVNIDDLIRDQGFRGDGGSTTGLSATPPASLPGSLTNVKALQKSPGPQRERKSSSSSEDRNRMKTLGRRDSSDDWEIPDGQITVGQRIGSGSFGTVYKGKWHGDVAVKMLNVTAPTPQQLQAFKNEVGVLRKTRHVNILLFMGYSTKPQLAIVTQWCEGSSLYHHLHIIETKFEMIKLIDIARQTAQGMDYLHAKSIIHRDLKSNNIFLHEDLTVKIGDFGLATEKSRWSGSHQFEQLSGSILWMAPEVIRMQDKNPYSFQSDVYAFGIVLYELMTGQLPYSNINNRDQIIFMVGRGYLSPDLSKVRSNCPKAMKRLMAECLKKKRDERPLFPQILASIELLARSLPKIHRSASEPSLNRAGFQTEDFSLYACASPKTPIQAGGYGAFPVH
# GRK1 = GRK1 (Homo sapiens, UniProt Q15835)
# RIOK1 = RIOK1 (Homo sapiens, UniProt Q9BRS2)
# TNK1 = TNK1 (Homo sapiens, UniProt Q13470)
# PRKCD = PRKCD (Homo sapiens, UniProt Q05655)
# MAPKAPK2 = MAPKAPK2 (Homo sapiens, UniProt P49137)
# Sequence of MAPKAPK2 (P49137 whole entry): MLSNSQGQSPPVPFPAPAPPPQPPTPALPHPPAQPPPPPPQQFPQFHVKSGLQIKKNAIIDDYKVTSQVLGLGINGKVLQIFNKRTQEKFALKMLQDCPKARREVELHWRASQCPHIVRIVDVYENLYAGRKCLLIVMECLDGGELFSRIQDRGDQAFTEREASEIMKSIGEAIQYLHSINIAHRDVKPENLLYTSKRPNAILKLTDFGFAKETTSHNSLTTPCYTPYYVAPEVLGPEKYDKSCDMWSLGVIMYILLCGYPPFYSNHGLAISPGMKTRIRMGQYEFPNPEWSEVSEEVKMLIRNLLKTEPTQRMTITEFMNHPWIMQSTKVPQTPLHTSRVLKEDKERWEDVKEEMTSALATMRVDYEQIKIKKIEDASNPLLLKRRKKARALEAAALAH
# MARK2 = MARK2 (Homo sapiens, UniProt Q7KZI7)
# PHKG2 = PHKG2 (Homo sapiens, UniProt P15735)
# PDGFRA = PDGFRA (Homo sapiens, UniProt P16234)
# ERK3 = ERK3 (Homo sapiens, UniProt Q16659)
# ADCK3 = ADCK3 (Homo sapiens, UniProt Q8NI60)
# TXK = TXK (Homo sapiens, UniProt P42681)
# Sequence of TXK (P42681 whole entry): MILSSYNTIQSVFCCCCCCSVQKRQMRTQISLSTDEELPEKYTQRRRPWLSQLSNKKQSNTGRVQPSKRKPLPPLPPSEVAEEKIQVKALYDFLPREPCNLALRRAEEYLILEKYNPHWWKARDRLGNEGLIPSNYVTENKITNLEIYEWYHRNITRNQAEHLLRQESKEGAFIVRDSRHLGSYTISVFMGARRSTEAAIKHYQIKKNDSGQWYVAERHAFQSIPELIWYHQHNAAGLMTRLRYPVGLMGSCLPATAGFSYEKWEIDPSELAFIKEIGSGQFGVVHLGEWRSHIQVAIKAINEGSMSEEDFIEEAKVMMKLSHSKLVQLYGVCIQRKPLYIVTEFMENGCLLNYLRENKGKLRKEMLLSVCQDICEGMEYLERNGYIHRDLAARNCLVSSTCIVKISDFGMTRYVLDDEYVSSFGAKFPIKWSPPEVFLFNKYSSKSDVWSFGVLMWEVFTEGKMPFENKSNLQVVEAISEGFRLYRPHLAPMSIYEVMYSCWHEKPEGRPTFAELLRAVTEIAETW
# BRAF = BRAF (Homo sapiens, UniProt P15056)
# Sequence of BRAF (P15056 whole entry): as the sequence (P15056 whole entry V600E) above, with E600V counted along it
# ERK2 = ERK2 (Homo sapiens, UniProt P28482)
# Sequence of SgK110 (P0C264 whole entry): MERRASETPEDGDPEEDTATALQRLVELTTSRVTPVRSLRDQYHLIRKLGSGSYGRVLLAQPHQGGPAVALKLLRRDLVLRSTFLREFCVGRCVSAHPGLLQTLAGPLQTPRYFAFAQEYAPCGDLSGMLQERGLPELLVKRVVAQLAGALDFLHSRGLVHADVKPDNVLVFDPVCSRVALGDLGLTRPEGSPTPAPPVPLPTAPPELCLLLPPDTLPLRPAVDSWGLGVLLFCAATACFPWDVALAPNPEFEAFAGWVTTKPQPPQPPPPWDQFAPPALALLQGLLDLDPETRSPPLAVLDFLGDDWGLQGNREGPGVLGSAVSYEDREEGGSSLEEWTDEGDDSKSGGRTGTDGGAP
# Sequence of TEC (P42680 whole entry): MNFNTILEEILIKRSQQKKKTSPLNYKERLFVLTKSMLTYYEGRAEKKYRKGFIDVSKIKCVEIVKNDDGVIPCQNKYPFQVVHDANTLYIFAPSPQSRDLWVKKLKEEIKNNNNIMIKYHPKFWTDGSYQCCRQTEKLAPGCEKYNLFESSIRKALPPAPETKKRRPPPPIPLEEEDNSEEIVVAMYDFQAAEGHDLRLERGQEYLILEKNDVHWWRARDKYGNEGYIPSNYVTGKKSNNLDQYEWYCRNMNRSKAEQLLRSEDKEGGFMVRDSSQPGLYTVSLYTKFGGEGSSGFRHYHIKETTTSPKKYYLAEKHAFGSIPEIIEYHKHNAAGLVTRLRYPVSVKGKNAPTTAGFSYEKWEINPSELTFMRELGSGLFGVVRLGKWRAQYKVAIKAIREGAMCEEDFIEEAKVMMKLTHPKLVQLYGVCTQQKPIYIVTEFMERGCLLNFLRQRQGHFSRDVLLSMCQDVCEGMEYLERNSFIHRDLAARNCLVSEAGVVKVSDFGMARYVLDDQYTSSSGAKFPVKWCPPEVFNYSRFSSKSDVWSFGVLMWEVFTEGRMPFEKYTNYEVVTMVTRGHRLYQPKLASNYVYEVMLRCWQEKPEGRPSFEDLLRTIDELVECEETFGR
structure (smiles),measurement,setting,value
"CNc1ncc2cc(-c3ccc(-c4cccc(C)n4)cc3Cl)c(=O)n(C[C@H]3OC[C@H](N)CO3)c2n1 [compound 6, G-5555]",Percent Control,STK4,90%
same,Percent Control,TEC,100%
same,Percent Control,STK35,100%
same,Percent Control,MAP3K15,72%
same,Percent Control,PIK3CA,94%
same,Percent Control,KIT(L576P),100%
same,Percent Control,SgK110,56%
same,Percent Control,MST2,64%
same,Percent Control,PCTK3,100%
same,Percent Control,PFTK1,100%
same,Percent Control,PRKD3,95%
same,Percent Control,EGFR,100%
same,Percent Control,TAOK2,99%
same,Percent Control,PDGFRB,97%
same,Percent Control,PIK3C2G,95%
same,Percent Control,IRAK3,95%
same,Percent Control,ERK1,100%
same,Percent Control,BRAF(V600E),100%
same,Percent Control,GRK1,100%
same,Percent Control,RIOK1,100%
same,Percent Control,TNK1,100%
same,Percent Control,PRKCD,100%
same,Percent Control,MAPKAPK2,100%
same,Percent Control,MARK2,100%
same,Percent Control,PHKG2,100%
same,Percent Control,PDGFRA,100%
same,Percent Control,ERK3,100%
same,Percent Control,ADCK3,100%
same,Percent Control,TXK,100%
same,Percent Control,BRAF,100%
same,Percent Control,ERK2,100%

# Reference: paper doi:10.1101/2021.04.08.439011v1 (biorxiv, 2021)
